# Test results as given in article PMC6199744, “Development of Chemical Proteomics for the Folateome and Analysis of the Kinetoplastid Folateome” (ACS Infectious Diseases, 2018).
# Several values for one entry are separate records, joined by “and”; a condition that tells them apart may be missing. Equal values may be shown once. Read-outs that look alike come from different tables or passages of the source.
# Tested on: T. brucei lysate proteins
# Type: binding, Trypanosoma brucei
smiles,measurement,setting,value
"Nc1nc2c(c(=O)[nH]1)N(C=O)C(CNc1ccc(C(=O)N[C@@H](CCC(=O)O)C(=O)O)cc1)CN2 (stereo partly drawn) [LEU, leucovorin]",fold change vs vehicle control,,0.89 and 1.1 and 1.13
same,fold change,"protein CZB00000046.1 HA-UBIQUITIN, vehicle control = 1",0.69
same,fold change,"protein CZT00008884.1 […]-ASSOCIATED GENE 3 (ESAG3) PROTEIN, vehicle control = 1",1.21
same,fold change,"protein CZT00018965.1 RETRO[…] (RHS) PROTEIN 1, vehicle control = 1",1.3
same,fold change vs vehicle control,"protein TB09.160.3270 ATP-DEPENDENT DEAD BOX HELICASE, PUTATIVE, vehicle control = 1",1.53
same,fold change,"protein TB09.160.3710 PRO[…] NUCLEAR ANTIGEN (PCNA), PUTATIVE, vehicle control = 1",1
same,fold change vs vehicle control,"protein TB09.160.4200 60S ACIDIC RIBOSOMAL PROTEIN, PUTATIVE, vehicle control = 1",1.11
same,fold change vs vehicle control,"protein TB09.160.4250 TR[…], vehicle control = 1",1.26
same,fold change,"protein TB09.211.3540 GLYCEROL KINASE, GLYCOSOMAL, vehicle control = 1",1.39
same,fold change,"protein TB11.01.0450 PROTEIN PHOSPHATASE 1, PUTATIVE, vehicle control = 1",0.92
same,fold change,"protein TB11.01.1690 HY[…], CONSERVED, vehicle control = 1",1.4
same,fold change vs vehicle control,"protein TB11.01.2560 40S RIBOSOMAL PROTEIN SA, PUTATIVE, vehicle control = 1",0.87
same,fold change,"protein TB11.01.3560 VACUOLAR ATP SYNTHASE SUBUNIT B, PUTATIVE, vehicle control = 1",0.9
same,fold change vs vehicle control,"protein TB11.01.4370 HY[…], CONSERVED, vehicle control = 1",1.1
same,fold change,"protein TB11.01.5350 PROFILIN, vehicle control = 1",1.27
same,fold change,"protein TB11.01.8740 PROTEIN PHOSPHATASE 4, PUTATIVE, vehicle control = 1",0.73
same,fold change vs vehicle control,"protein TB11.02.1135 DYNEIN LIGHT CHAIN, PUTATIVE, vehicle control = 1",1.39
same,fold change vs vehicle control,"protein TB11.02.2040 HY[…], CONSERVED (ALBA-Domain Protein), vehicle control = 1",1.42
same,fold change vs vehicle control,"protein TB11.02.2510 GUANINE NUCLEOTIDE-BINDING BETA SUBUNIT-LIKE PROTEIN, vehicle control = 1",0.98
same,fold change,"protein TB11.02.2960 MIT[…] PROTEIN, PUTATIVE, vehicle control = 1",0.69
same,fold change vs vehicle control,"protein TB11.02.4170 40S RIBOSOMAL PROTEIN S5, PUTATIVE, vehicle control = 1",1.44
same,fold change vs vehicle control,"protein TB11.03.0250 C[…], vehicle control = 1",1.92
same,fold change vs vehicle control,"protein TB11.03.0530 HY[…], CONSERVED (hy[…] SCD6.10), vehicle control = 1",0.99
same,fold change vs vehicle control,"protein TB427TMP.01.0480 HY[…], CONSERVED, vehicle control = 1",1.07
same,fold change,"protein TB427TMP.01.1470 60S RIBOSOMAL PROTEIN L10A, PUTATIVE, vehicle control = 1",0.96
same,fold change vs vehicle control,"protein TB427TMP.01.1680 POLYUBIQUITIN, PUTATIVE, vehicle control = 1",1.44
same,fold change,"protein TB427TMP.01.2460 HY[…], CONSERVED, vehicle control = 1",0.97
same,fold change vs vehicle control,"protein TB427TMP.01.3370 […] PROTEIN, PUTATIVE, vehicle control = 1",1.11
same,fold change vs vehicle control,"protein TB427TMP.01.4280 HY[…], CONSERVED, vehicle control = 1",1.18
same,fold change,"protein TB427TMP.01.4650 HY[…], CONSERVED, vehicle control = 1",0.86
same,fold change vs vehicle control,"protein TB427TMP.01.5680 HY[…], CONSERVED, vehicle control = 1",1.44
same,fold change vs vehicle control,"protein TB427TMP.01.5690 DRBD4, vehicle control = 1",0.99
same,fold change,"protein TB427TMP.01.5960 MIT[…] PROTEIN, PUTATIVE, vehicle control = 1",0.85
same,fold change,"protein TB427TMP.01.6180 HY[…], CONSERVED, vehicle control = 1",0.75
same,fold change vs vehicle control,"protein TB427TMP.01.6890 SMALL GTPASE, PUTATIVE, vehicle control = 1",2.02
same,fold change,"protein TB427TMP.01.7490 HY[…], CONSERVED, vehicle control = 1",0.86
same,fold change vs vehicle control,"protein TB427TMP.01.7530 HY[…], CONSERVED, vehicle control = 1",1.1
same,fold change,"protein TB427TMP.01.8390 HY[…], CONSERVED, vehicle control = 1",0.84
same,fold change,"protein TB427TMP.01.8570 DYNEIN LIGHT IN[…] D1BLIC, PUTATIVE, vehicle control = 1",0.9
same,fold change,"protein TB427TMP.02.0030 DYNEIN HEAVY CHAIN, PUTATIVE, vehicle control = 1",0.83
same,fold change,"protein TB427TMP.02.0460 NUCLEOPORIN, vehicle control = 1",0.84
same,fold change,"protein TB427TMP.02.0760 DYNEIN HEAVY CHAIN, PUTATIVE, vehicle control = 1",0.55
same,fold change,"protein TB427TMP.02.4100 PRETRA[…], ALPHA SUBUNIT, PUTATIVE, vehicle control = 1",1.41
same,fold change vs vehicle control,"protein TB427TMP.02.4300 HY[…], CONSERVED, vehicle control = 1",1.07
same,fold change,"protein TB427TMP.02.4550 HY[…], CONSERVED, vehicle control = 1",0.97
same,fold change,"protein TB427TMP.02.5660 HY[…], CONSERVED, vehicle control = 1",0.76
same,fold change vs vehicle control,"protein TB427TMP.02.5720 RIBONUCLEOSIDE-DIPHOSPHATE REDUCTASE LARGE CHAIN, vehicle control = 1",0.95
same,fold change,"protein TB427TMP.03.0150 HY[…], CONSERVED, vehicle control = 1",0.88
same,fold change,"protein TB427TMP.160.2370 HY[…], CONSERVED, vehicle control = 1",0.95
same,fold change,"protein TB427TMP.160.4310 GLUTAMATE DEHYDROGENASE, vehicle control = 1",0.99
same,fold change vs vehicle control,"protein TB427TMP.160.4560 ARGININE KINASE, vehicle control = 1",2.29
same,fold change vs vehicle control,"protein TB427TMP.160.4620 INOSITOL-1(OR 4)-MONOPHOSPHATASE, PUTATIVE, vehicle control = 1",1.07
same,fold change vs vehicle control,"protein TB427TMP.160.4630 HY[…], CONSERVED, vehicle control = 1",1
same,fold change,"protein TB427TMP.160.4770 PROTEIN KINASE, PUTATIVE, vehicle control = 1",0.91
same,fold change,"protein TB427TMP.160.4910 FLAVOPROTEIN MONOOXYGENASE, PUTATIVE, vehicle control = 1",0.97
same,fold change,"protein TB427TMP.160.5670 HY[…], CONSERVED, vehicle control = 1",0.81
same,fold change,"protein TB427TMP.211.2730 GIM5A PROTEIN, vehicle control = 1",1.23
same,fold change vs vehicle control,"protein TB427TMP.211.3140 HY[…], CONSERVED, vehicle control = 1",1.57
same,fold change vs vehicle control,"protein TB427TMP.211.3510 ATP-DEPENDENT DEAD/H RNA HELICASE, PUTATIVE, vehicle control = 1",0.96
same,fold change vs vehicle control,"protein TB427TMP.22.0003 PHOSPH[…], PUTATIVE, vehicle control = 1",0.99
same,fold change,"protein TB427TMP.46.0001 60S ACIDIC RIBOSOMAL SUBUNIT PROTEIN, PUTATIVE, vehicle control = 1",0.96
same,fold change,"protein TB427TMP.47.0011 HY[…], CONSERVED, vehicle control = 1",0.89
same,fold change vs vehicle control,"protein TB427TMP.55.0006 INTR[…] PROTEIN IFT88, vehicle control = 1",1.07
same,fold change vs vehicle control,"protein TB427TMP.57.0008 CALPAIN-LIKE PROTEIN, PUTATIVE, vehicle control = 1",0.86
same,fold change vs vehicle control,"protein TB427.01.120 RETRO[…] SPOT (RHS) PROTEIN, PUTATIVE, vehicle control = 1",0.97
same,fold change,"protein TB427.01.2570 COATOMER BETA SUBUNIT, vehicle control = 1",0.97
same,fold change,"protein TB427.01.420 RETRO[…] SPOT (RHS) PROTEIN, PUTATIVE, vehicle control = 1",1.1
same,fold change vs vehicle control,"protein TB427.02.3880 HET[…] RIBONUC[…]/F, PUTATIVE, vehicle control = 1",1.3
same,fold change vs vehicle control,"protein TB427.02.5800 SEDOHEPTULOSE-1,7-BISPHOSPHATASE, vehicle control = 1",1.36
same,fold change vs vehicle control,"protein TB427.02.6050 BETA PRIME COP PROTEIN, vehicle control = 1",1.34
same,fold change,"protein TB427.03.1790 PYRUVATE DEHYDROGENASE E1 BETA SUBUNIT, PUTATIVE, vehicle control = 1",0.98
same,fold change vs vehicle control,"protein TB427.03.3160 POLY(A) POLYMERASE, vehicle control = 1",1.23
same,fold change vs vehicle control,"protein TB427.03.3950 HY[…], CONSERVED, vehicle control = 1",0.86
same,fold change vs vehicle control,"protein TB427.03.4040 HY[…], CONSERVED (Ankyrinrepeat), vehicle control = 1",3.1
same,fold change,"protein TB427.04.1300 HY[…], CONSERVED, vehicle control = 1",1.3
same,fold change vs vehicle control,"protein TB427.04.1510 PHOSPHOLIPID-TRA[…], PUTATIVE, vehicle control = 1",0.95
same,fold change vs vehicle control,"protein TB427.04.1660 MIT[…] PROTEIN, PUTATIVE, vehicle control = 1",1
same,fold change,"protein TB427.04.310 HY[…], CONSERVED, vehicle control = 1",0.93
same,fold change,"protein TB427.04.420 PHOSPHATIDYLINOSITOL 3-KINASE (TOR2), vehicle control = 1",0.74
same,fold change,"protein TB427.04.450 COATOMER ALPHA SUBUNIT, PUTATIVE, vehicle control = 1",1.1
same,fold change,"protein TB427.04.5010 CALRETICULIN, PUTATIVE, vehicle control = 1",2.06
same,fold change,"protein TB427.04.5200 NUCLEOPORIN (NUP54/57), PUTATIVE, vehicle control = 1",0.9
same,fold change,"protein TB427.05.1210 SHORT-CHAIN DEHYDROGENASE, PUTATIVE, vehicle control = 1",1.33
same,fold change vs vehicle control,"protein TB427.05.1320 HY[…], CONSERVED, vehicle control = 1",1.07
same,fold change vs vehicle control,"protein TB427.05.1700 R[…] A 28 KDA SUBUNIT, PUTATIVE, vehicle control = 1",1.31
same,fold change vs vehicle control,"protein TB427.05.3260 HY[…], CONSERVED, vehicle control = 1",0.99
same,fold change,"protein TB427.05.3400 CALCIUM-TRA[…]-TYPE ATPASE, vehicle control = 1",1.28
same,fold change vs vehicle control,"protein TB427.05.4560 GUANINE DEAMINASE, PUTATIVE, vehicle control = 1",0.95
same,fold change vs vehicle control,"protein TB427.06.1500 ALKYL-DIHYDR[…] SYNTHASE, vehicle control = 1",0.97
same,fold change,"protein TB427.06.3500 ENDOSOMAL T[…] RME-8, PUTATIVE, vehicle control = 1",0.71
